Laboratory results from patent US20260256742A1, “ANDROGEN RECEPTOR ANTAGONISTS FOR THE TREATMENT OF PATIENTS WITH BIOCHEMICAL RECURRENCE OF HORMONE SENSITIVE PROSTATE CANCER” (BAYER CONSUMER CARE AG, priority 2023, published 2026).
Like-named read-outs stand apart in the source and are kept apart here.

Assays:
[1] = target: Cytochrome P450 (CYP)3A4 (Homo sapiens, UniProt P08684); conditions: in vitro; cited from earlier work
[2] = target: T1, organic anion transporter (OAT)3 (Homo sapiens, UniProt Q8TCC7); conditions: in vitro; cited from earlier work
T1 sequence (Q8TCC7 1-542): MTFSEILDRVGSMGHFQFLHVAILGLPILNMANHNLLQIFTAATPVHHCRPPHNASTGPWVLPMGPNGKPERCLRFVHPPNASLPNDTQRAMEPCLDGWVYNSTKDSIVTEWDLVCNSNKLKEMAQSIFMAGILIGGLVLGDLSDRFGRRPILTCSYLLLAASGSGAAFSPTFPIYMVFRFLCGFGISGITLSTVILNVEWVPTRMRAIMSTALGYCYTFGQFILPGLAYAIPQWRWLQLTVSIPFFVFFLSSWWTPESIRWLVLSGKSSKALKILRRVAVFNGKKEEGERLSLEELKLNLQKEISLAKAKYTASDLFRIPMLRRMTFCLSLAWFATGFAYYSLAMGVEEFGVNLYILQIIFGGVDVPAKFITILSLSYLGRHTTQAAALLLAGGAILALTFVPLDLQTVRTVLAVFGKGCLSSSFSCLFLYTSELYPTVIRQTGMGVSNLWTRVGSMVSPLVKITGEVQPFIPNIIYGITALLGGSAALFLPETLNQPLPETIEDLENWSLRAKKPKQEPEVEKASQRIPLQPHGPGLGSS

[3] = system: CYP1A2; conditions: in vitro; cited from earlier work
[4] = system: nmCRPC; conditions: in combination with ADT, patients with nmCRPC; cited from earlier work
[5] = rats; cited from earlier work
[6] = target: MATE2-K (Homo sapiens, UniProt Q86VL8); conditions: in vitro; cited from earlier work
Chain of MATE2-K (Q86VL8 1-566 isoform Q86VL8-3): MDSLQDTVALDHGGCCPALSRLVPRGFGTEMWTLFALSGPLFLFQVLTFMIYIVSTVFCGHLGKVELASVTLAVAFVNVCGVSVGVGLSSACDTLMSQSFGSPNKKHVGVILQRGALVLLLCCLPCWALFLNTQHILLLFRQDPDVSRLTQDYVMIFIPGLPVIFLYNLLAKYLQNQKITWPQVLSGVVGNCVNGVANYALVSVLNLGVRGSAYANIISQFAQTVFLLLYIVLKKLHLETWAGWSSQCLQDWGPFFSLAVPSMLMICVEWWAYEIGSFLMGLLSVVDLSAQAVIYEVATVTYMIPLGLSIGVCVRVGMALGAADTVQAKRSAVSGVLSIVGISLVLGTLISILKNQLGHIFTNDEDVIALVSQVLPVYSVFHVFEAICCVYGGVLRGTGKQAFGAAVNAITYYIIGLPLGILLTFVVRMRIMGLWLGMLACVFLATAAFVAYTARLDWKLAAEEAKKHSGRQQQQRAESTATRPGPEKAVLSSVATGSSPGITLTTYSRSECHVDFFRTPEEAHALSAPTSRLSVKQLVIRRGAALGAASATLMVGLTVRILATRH

[7] = system: prostate cancer cells rendered castration resistant via overexpression of AR; conditions: cited from earlier work
[8] = dog, in vivo
[9] = all investigated species including man; cited from earlier work
[10] = transgenic mouse carcinogenicity study; assay type: in vivo, 001178-T (hemizygous) RasH 2 mice; conditions: male and female RasH 2 mice, up to 500 mg/kg/dose BID, at least 26 weeks
[11] = target: P-glycoprotein (P-gp) (Homo sapiens, UniProt P08183); conditions: cited from earlier work
Chain of P-glycoprotein (P-gp) (P08183 whole entry): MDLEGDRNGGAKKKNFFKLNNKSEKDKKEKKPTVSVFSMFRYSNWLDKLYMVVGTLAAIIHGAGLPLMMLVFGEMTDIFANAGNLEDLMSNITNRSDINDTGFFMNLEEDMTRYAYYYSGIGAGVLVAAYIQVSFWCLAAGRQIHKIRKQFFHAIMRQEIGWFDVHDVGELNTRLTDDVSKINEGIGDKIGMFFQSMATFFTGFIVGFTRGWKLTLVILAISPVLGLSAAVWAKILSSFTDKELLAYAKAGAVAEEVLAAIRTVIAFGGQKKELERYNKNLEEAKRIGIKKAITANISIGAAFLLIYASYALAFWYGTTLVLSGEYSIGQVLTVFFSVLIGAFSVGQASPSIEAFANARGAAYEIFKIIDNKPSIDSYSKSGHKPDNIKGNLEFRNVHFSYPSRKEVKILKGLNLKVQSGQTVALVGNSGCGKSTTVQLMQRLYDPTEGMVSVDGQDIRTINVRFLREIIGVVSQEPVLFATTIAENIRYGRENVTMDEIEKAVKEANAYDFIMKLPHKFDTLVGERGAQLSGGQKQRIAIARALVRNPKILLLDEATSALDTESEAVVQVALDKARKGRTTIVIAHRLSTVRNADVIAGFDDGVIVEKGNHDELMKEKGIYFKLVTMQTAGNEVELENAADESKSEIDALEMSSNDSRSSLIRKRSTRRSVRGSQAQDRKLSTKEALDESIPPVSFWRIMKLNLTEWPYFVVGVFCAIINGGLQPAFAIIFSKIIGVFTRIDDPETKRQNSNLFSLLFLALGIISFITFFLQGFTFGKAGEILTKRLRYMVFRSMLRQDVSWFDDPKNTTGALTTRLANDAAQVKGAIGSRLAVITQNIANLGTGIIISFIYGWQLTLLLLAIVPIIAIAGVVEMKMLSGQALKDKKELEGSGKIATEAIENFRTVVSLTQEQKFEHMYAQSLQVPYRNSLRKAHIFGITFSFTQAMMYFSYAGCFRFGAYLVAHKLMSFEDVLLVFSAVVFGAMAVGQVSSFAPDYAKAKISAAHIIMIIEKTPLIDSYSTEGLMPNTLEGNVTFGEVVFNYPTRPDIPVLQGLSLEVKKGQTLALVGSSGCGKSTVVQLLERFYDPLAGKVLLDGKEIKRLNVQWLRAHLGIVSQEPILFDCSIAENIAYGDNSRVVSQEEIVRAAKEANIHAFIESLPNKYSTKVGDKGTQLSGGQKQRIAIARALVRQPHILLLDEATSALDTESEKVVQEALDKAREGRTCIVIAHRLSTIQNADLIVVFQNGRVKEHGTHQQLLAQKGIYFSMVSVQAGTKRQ

[12] = rat, in vivo
[13] = system: human prostate cancer xenograft models; conditions: cited from earlier work
[14] = target: P-gp (Homo sapiens, UniProt P08183); conditions: in vitro; cited from earlier work
Chain of P-gp (P08183 whole entry, canonical isoform): as the sequence (P08183 whole entry) above

[15] = system: nine CYP isoforms; assay: in vitro CYP inhibition; assay type: in vitro ADME; conditions: rank order and mechanistic static assessment
[16] = system: nine CYP isoforms; conditions: in vitro; cited from earlier work

Chain of Cytochrome P450 (CYP)3A4 (P08684 whole entry): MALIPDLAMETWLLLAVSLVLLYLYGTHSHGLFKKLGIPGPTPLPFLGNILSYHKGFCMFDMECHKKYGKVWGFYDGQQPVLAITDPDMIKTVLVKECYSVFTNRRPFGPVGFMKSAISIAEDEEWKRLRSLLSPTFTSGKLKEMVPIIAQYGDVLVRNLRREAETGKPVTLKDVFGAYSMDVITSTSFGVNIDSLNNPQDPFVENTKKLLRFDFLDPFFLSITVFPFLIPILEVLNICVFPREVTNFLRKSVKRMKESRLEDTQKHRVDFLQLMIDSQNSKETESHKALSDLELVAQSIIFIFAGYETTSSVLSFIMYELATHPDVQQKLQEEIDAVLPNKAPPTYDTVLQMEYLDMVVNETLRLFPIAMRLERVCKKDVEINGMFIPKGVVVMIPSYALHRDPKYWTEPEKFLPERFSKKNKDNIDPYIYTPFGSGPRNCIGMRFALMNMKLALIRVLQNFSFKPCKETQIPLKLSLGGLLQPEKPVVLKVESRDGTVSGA

SMILES: CC(O)c1cc(C(=O)N[C@@H](C)Cn2ccc(-c3ccc(C#N)c(Cl)c3)n2)[nH]n1 (stereo partly shown) [Darolutamide]
- main metabolic pathway [1]: mainly metabolized via oxidative biotransformation catalyzed by Cytochrome P450 (CYP)3A4
- inhibition of OAT3-mediated transport [2]: observed
- induction of CYP1A2 activity [3]: no relevant induction
- metastatic free survival (MFS) [4]: significantly increased
- overall survival (OS) [4]: significantly increased
- absorption [5]: complete and rapid absorption
- bioavailability [5]: high bioavailability
- inhibition of MATE2-K-mediated transport [6]: observed
- agonist activity with AR overexpression [7]: lacks the partial agonist activity
- additional changes to reproductive tissues [8]: testicular hypospermia, seminiferous tubule dilatation and degeneration
- deaths during the treatment period [8]: No deaths occurred
- other adverse effects [8]: No other adverse effects were observed
- reversibility of changes in the male reproductive organs [8]: reversed or partially resolved
- major metabolites observed in plasma [9]: Only one major metabolite, keto-darolutamide
- carcinogenic potential [10]: no carcinogenic potential
- substrate for P-gp [11]: substrate
- additional changes to reproductive tissues [12]: minimal increase in vacuolation of the pituitary gland, atrophy and secretory reduction in seminal vesicles and mammary glands
- deaths during the treatment period [12]: No deaths occurred
- other adverse effects [12]: No other adverse effects were observed
- reversibility of changes in the male reproductive organs [12]: reversed or partially resolved
- tumor regression ([13]; non-castrate hormone-sensitive and bicalutamide-resistant human prostate cancer xenograft models): partial or complete tumor regression
- prostate tumor progression ([13]; several cell line- and patient derived models): inhibits prostate tumor progression
- inhibition of P-gp-mediated transport [14]: observed
- risk of clinically relevant DDIs via CYP inhibition [15]: very low
- inhibition of enzymatic activity of nine CYP isoforms [16]: not inhibited or slightly inhibited
